Holding throughout (assay type): in vivo
Test [1] deals with Alopecurus myosuroides (ALOMY). In words: Example B pre-emergence herbicidal test, glasshouse. Conditions: 312 h, rate 250 g/ha, evaluated after 13 days, 100=total damage to plant, 0=no damage to plant. The method, then: (§1) Seeds of a variety of test species were sown in standard soil in pots. After cultivation for one day (pre-emergence) or after 8 days cultivation (post-emergence) under controlled conditions in a glasshouse (at 24/16° C., day/night; 14 hours light; 65% humidity), the plants were sprayed with an aqueous spray solution derived from the formulation of the technical active ingredient in acetone/water (50:50) solution containing 0.5% Tween 20 (polyoxyethelyene sorbitan monolaurate, CAS RN 9005-64-5). The test plants were then grown in a glasshouse under controlled conditions in a glasshouse (at 24/16° C., day/night; 14 hours light; 65% humidity) and watered twice daily. After 13 days for pre and post-emergence, the test was evaluated (100=total damage to plant; 0=no damage to plant). Test Plants: Alopecurus myosuroides (ALOMY), Avena fatua (AVEFA), Setaria faberi (SETFA), Echinochloa crus-galli (ECHCG), Solanum nigrum (SOLNI) and Amaranthus retoflexus (AMARE)

Test [2] relates to Amaranthus retoflexus (AMARE). Described as above. The settings on record: Amaranthus retroflexus, 312 h, rate 250 g/ha, evaluated after 13 days, 100=total damage to plant, 0=no damage to plant. The method, then:
as §1

Test [3] deals with Avena fatua (AVEFA). Described as above. The settings on record: 312 h, rate 250 g/ha, evaluated after 13 days, 100=total damage to plant, 0=no damage to plant. As to the method: as §1
For test [4], the system named is Echinochloa crus-galli (ECHCG). The description is as above. The settings on record: Echinochloa crus-galli, 312 h, rate 250 g/ha, evaluated after 13 days, 100=total damage to plant, 0=no damage to plant, read-out: Pre-Emergence Activity ECHGG. As to the method: as §1
For test [5], the system named is Setaria faberi (SETFA). The test is described as above. The settings on record: Setaria faberi, 312 h, rate 250 g/ha, evaluated after 13 days, 100=total damage to plant, 0=no damage to plant, read-out: Pre-Emergence Activity SEFTA. As to the method: as §1
The test system of test [6] is Alopecurus myosuroides (ALOMY). In words: Example B post-emergence herbicidal test, glasshouse. Conditions: 312 h, rate 250 g/ha, evaluated after 13 days, read-out: Post-Emergence Activity ALOMY (100=total damage to plant; 0=no damage to plant). As to the method: as §1
Test [7] concerns Amaranthus retoflexus (AMARE). The description is as above. Conditions: Amaranthus retroflexus, 312 h, rate 250 g/ha, evaluated after 13 days, read-out: Post-Emergence Activity AMARE (100=total damage to plant; 0=no damage to plant). The method, then:
as §1

In test [8] the test system is Avena fatua (AVEFA). Described as above. The settings on record: 312 h, rate 250 g/ha, evaluated after 13 days, read-out: Post-Emergence Activity AVEFA (100=total damage to plant; 0=no damage to plant). The method, then: as §1
Test [9] deals with Echinochloa crus-galli (ECHCG). The test is described as above. The settings on record: 312 h, rate 250 g/ha, evaluated after 13 days, read-out: Post-Emergence Activity ECHGG (100=total damage to plant; 0=no damage to plant). As to the method:
as §1

The subject of test [10] is Setaria faberi (SETFA). The description is as above. The settings on record: 312 h, rate 250 g/ha, evaluated after 13 days, read-out: Post-Emergence Activity SEFTA (100=total damage to plant; 0=no damage to plant). The method, then: as §1

In patent publication US8956999B2, “Herbicides” (Syngenta Limited, priority 2007, dated 2015) one finds pest or weed control data, which are given here for 13 molecules.

The structures appear in SMILES notation.

For `CCc1sc(-c2ccc(Cl)c(F)c2)nc1C1C(=O)C(C)(C)OC(C)(C)C1=O` [Compound T48], the pest or weed control at 250 g/ha turned out to be 30% in test [1]; 0% in test [2]; 60% in the test on Avena fatua (AVEFA) [3]; 50% in test [4]; 70% in the test on Setaria faberi (SETFA) [5]; 100% in [6]. The pest or weed control at 250 g/ha was 0% in [7], 100% with Avena fatua (AVEFA) [8], 100% in [9] and 100% with Setaria faberi (SETFA) [10].

As to `Cc1sc(-c2ccc(Cl)cc2F)nc1C1C(=O)C(C)(C)OC(C)(C)C1=O` [Compound T21], the pest or weed control at 250 g/ha in test [1] is 60%; in test [2], 0%; with Avena fatua (AVEFA) [3] it was 0%; in [4], 100%; with Setaria faberi (SETFA) [5] it was 100%; in [6] it was 100%. Also, the pest or weed control at 250 g/ha was determined as 0% in test [7], 90% with Avena fatua (AVEFA) [8], 100% in test [9] and 100% in the test with Setaria faberi (SETFA) [10].

For the molecule `CCc1sc(-c2ccc(Cl)cc2)nc1C1C(=O)C2CCC(C)(O2)C1=O` (stereo not shown) [Compound T50, 3-[2-(4-chloro-phenyl)-5-ethyl-thiazol-4-yl]-1-methyl-8-oxa-bicyclo[3.2.1]-octane-2,4-dione], the pest or weed control at 250 g/ha in test [1] stood at 90%; in test [2], 0%; in the test on Avena fatua (AVEFA) [3], 90%; in [4] it was 100%; with Setaria faberi (SETFA) [5], 100%; in [6], 100%. Besides, the pest or weed control at 250 g/ha in test [7] was 0%; in the test with Avena fatua (AVEFA) [8] it was 100%; in [9] it was 100%; with Setaria faberi (SETFA) [10], 100%.

As to `CCc1sc(-c2ccc(Br)cc2)nc1C1C(=O)C(C)(C)OC(C)(C)C1=O` [Compound T49], the pest or weed control at 250 g/ha in test [1] is 60%; in test [2] it was 0%; in the test on Avena fatua (AVEFA) [3], 20%; in test [4], 60%; in the test on Setaria faberi (SETFA) [5], 80%; in test [6] it was 100%. Moreover, the pest or weed control at 250 g/ha in test [7] came to 20%; in the test with Avena fatua (AVEFA) [8] it was 100%; in test [9], 100%; in the test on Setaria faberi (SETFA) [10], 100%.

For the molecule `Cc1sc(-c2ccc([S+](C)[O-])cc2)nc1C1C(=O)C(C)(C)OC(C)(C)C1=O` (stereo not shown) [Compound T68], the pest or weed control at 250 g/ha in test [1] was 0%; in [2], 0%; with Avena fatua (AVEFA) [3], 0%; in [4] it was 20%; in the test with Setaria faberi (SETFA) [5], 20%; in test [6], 0%. Besides, the pest or weed control at 250 g/ha in test [7] was found to be 0%; with Avena fatua (AVEFA) [8], 0%; in test [9], 80%; in the test on Setaria faberi (SETFA) [10] it was 70%.

As to `CCc1sc(-c2ccc(Br)cn2)nc1C1C(=O)C(C)(C)OC(C)(C)C1=O` [Compound T63], the pest or weed control at 250 g/ha amounted to 20% in [1]; 0% in [2]; 20% in the test on Avena fatua (AVEFA) [3]; 30% in [4]; 20% in the test with Setaria faberi (SETFA) [5]; 80% in [6]. Further, the pest or weed control at 250 g/ha was 0% in test [7], 90% in the test with Avena fatua (AVEFA) [8], 100% in [9] and 100% in the test on Setaria faberi (SETFA) [10].

As for `Cc1sc(-c2ccc(Br)cn2)nc1C1=C(OC(=O)C2CC2)C(C)(C)OC(C)(C)C1=O` [Compound P4], the pest or weed control at 250 g/ha stood at 0% in test [1]; 0% in test [2]; 0% in the test on Avena fatua (AVEFA) [3]; 10% in test [4]; 20% with Setaria faberi (SETFA) [5]; 40% in test [6]. Further, the pest or weed control at 250 g/ha in test [7] amounted to 0%; in the test on Avena fatua (AVEFA) [8], 0%; in test [9], 90%; in the test on Setaria faberi (SETFA) [10] it was 90%.

Consider `Cc1cc(Br)ccc1-c1nc(C2C(=O)C(C)(C)OC(C)(C)C2=O)c(C)s1` [Compound T58], for which the pest or weed control at 250 g/ha is 0% in [1]; 20% in test [2]; 0% in the test with Avena fatua (AVEFA) [3]; 50% in [4]; 100% with Setaria faberi (SETFA) [5]; 90% in test [6]. The pest or weed control at 250 g/ha in test [7] came out at 0%; with Avena fatua (AVEFA) [8], 80%; in [9], 100%; in the test on Setaria faberi (SETFA) [10] it was 100%.

For `Cc1sc(-c2ccc(OC(F)F)cc2Cl)nc1C1C(=O)C(C)(C)OC(C)(C)C1=O` [Compound T70], the pest or weed control at 250 g/ha was 30% in test [1]; 0% in test [2]; 0% in the test with Avena fatua (AVEFA) [3]; 70% in test [4]; 70% with Setaria faberi (SETFA) [5]; 70% in [6]. For the same molecule, the pest or weed control at 250 g/ha in [7] is 0%; in the test with Avena fatua (AVEFA) [8], 10%; in test [9] it was 90%; with Setaria faberi (SETFA) [10], 90%.

As to `CC(=O)OC1=C(c2sc(-c3ccc(Cl)cc3)nc2C)C(=O)C(C)(C)OC1(C)C` [Compound P9], the pest or weed control at 250 g/ha in test [1] was found to be 20%; in [2] it was 0%; in the test with Avena fatua (AVEFA) [3], 0%; in test [4] it was 50%; in the test on Setaria faberi (SETFA) [5] it was 40%; in test [6] it was 90%. For the same molecule, the pest or weed control at 250 g/ha in test [7] is 30%; in the test with Avena fatua (AVEFA) [8], 80%; in [9], 100%; with Setaria faberi (SETFA) [10], 80%.

Turning to `Cc1sc(-c2ccc(Cl)s2)nc1C1C(=O)C(C)(C)OC(C)(C)C1=O` [Compound T55], the pest or weed control at 250 g/ha came to 0% in test [1]; 0% in test [2]; 0% in the test on Avena fatua (AVEFA) [3]; 20% in [4]; 50% in the test on Setaria faberi (SETFA) [5]; 40% in [6]. For the same molecule, the pest or weed control at 250 g/ha in test [7] is 0%; in the test with Avena fatua (AVEFA) [8], 0%; in test [9], 70%; in the test with Setaria faberi (SETFA) [10], 60%.

With `Cc1sc(-c2ccc(Cl)c(F)c2)nc1C1C(=O)C(C)(C)OC(C)(C)C1=O` [Compound T22], the pest or weed control at 250 g/ha in test [1] was found to be 70%; in test [2], 0%; in the test with Avena fatua (AVEFA) [3] it was 20%; in [4], 90%; in the test with Setaria faberi (SETFA) [5] it was 100%; in test [6], 100%. In addition, the pest or weed control at 250 g/ha came out at 0% in [7], 90% in the test on Avena fatua (AVEFA) [8], 100% in test [9] and 100% in the test on Setaria faberi (SETFA) [10].

Take `CCc1sc(-c2ccc(Br)cc2F)nc1C1C(=O)C(C)(C)OC(C)(C)C1=O` [Compound T54]: the pest or weed control at 250 g/ha is 100% in test [1]; 20% in test [2]; 90% with Avena fatua (AVEFA) [3]; 100% in [4]; 100% with Setaria faberi (SETFA) [5]; 100% in test [6]. Further, the pest or weed control at 250 g/ha in [7] came out at 0%; with Avena fatua (AVEFA) [8], 100%; in [9], 100%; in the test on Setaria faberi (SETFA) [10] it was 100%.
